Key:
[1] = system: DRG neurons on MAG-expressing CHO cells; experiment: Subcutaneous rolipram injections into P30 rats; neurite outgrowth of isolated DRG neurons on MAG-expressing CHO cells; assay type: in vivo, rat
Procedure: (§1) In order to determine whether a PDE4 specific inhibitor could be used to prime neurons in vivo and prevent inhibition of neurite outgrowth by myelin and MAG, rolipram was injected subcutaneously into P12 and P30 rats every 3 hours for 24 hours. For all experiments, rolipram was dissolved in DMSO and sterile saline was added to adjust the concentrations. The final volume of the rolipram solution was 0.2 ml for each injection. At each time point, a single rolipram injection was given. Rolipram was injected subcutaneously with insulin syringes (Becton Dickinson 1 ccU-100 insulin Syringe) under the skin of the rat's neck (for all experiments) and in various other regions (only for first experiment using P12 rats). Control animals were injected with a 0.2 ml mixture of DMSO and sterile saline without rolipram, following the same schedule.
In a second series of experiments, we injected increasing concentrations of rolipram subcutaneously into older animals (postnatal day 30; P30) every 3 hours for 24 hours and, as above, studied neurite outgrowth of isolated DRG neurons in the presence or absence of MAG.
(§2) DRG neurons were isolated from control and treated P30 animals and plated onto a monolayer of MAG-expressing CHO cells or a monolayer of control CHO cells. Neurons were cultured overnight before being fixed and immunostained for GAP43 to visualize the neurites, as described in Example 1. The length of the longest neurite per neuron from 180-200 neurons was measured. Results are expressed as a percentage of growth of the neurons isolated from control animals and are shown as the average length+/−SEM presented as a percentage of growth on control cells.
We next determined whether the effects of rolipram were time dependent. Rolipram (0.5 umol/kg) was administered by repeated subcutaneous injections to P30 rats for increasing amounts of time. DRG neurons were isolated from control and treated animals and plated onto a monolayer of MAG-expressing CHO cells or a monolayer of control CHO cells. Neurons were cultured overnight before being fixed and immunostained for GAP43 to visualize the neurites. The lengths of the longest neurite per neuron from 180-200 neurons were measured. Results are expressed as a percentage of growth of the neurons isolated from control animals and are shown as the average length+/−SEM presented as percentage of growth on control cells.

[2] = system: cerebellar neurons on purified, immobilized myelin; experiment: Priming of cerebellar neurons with rolipram; neurite outgrowth on purified, immobilized myelin; assay type: cell-based, rat; details: priming with rolipram 0.25 uM, FIG. 2B
Procedure: (§3) Isolated cerebellar neurons in SATO media (prepared as in Example 1) were plated onto poly-L-lysine-coated dishes at 1×10^6 cells/dish. Where indicated, either BDNF at a concentration of 200 ng/ml, or rolipram at a concentration 0.1 uM or 0.25 uM (all from Sigma) was added. After culture for 18 hours (termed priming), neurons were removed with 0.1% trypsin. Trypsinization was stopped by adding 5 ml of DMEM containing 10% FCS. The primed neurons were centrifuged at 800 rpm for 6 min and resuspended in SATO media. The concentration of cells were adjusted to 6×10^4 cells/ml. […] Myelin was prepared as described previously (Cai et al., 1999) from rat CNS white matter. Neurons were cultured overnight before being fixed and immunostained for GAP43 to visualize the neurites. The length of the longest neurite per neuron, from 180-200 neurons, was measured. Results are presented as the average length+/−SEM in micrometers (um). (See, e.g., U.S. Pat. Nos. 5,932,542 and 6,203,792).

hippocampal slices = details: cited from earlier work
[3] = system: rats with complete spinal cord transection; experiment: Complete transection of the spinal cord with Schwann cell bridge; BBB test of hindlimb locomotion; assay type: in vivo, rat
From the text: (§4) A “BBB Score” is the result of a test developed by Basso, Beattie and Bresnahan as a modifed 21-point open field locomoter scale on which to measure the extent of recovery of motor function in rats with after spinal cord injury. See, e.g, Basso et al., J. Neurotrauma 13(7):343-59 (1996); Beattie et al. (1997), herein incorporated by reference.
Adult rat spinal cords were completely transected at the T8 cord level and the next caudal segment was removed (Xu et al. (1997), herein incorporated by reference). Schwann cells were purified in culture from adult rat sciatic nerve, suspended in Matrigel: DMEM (30:70), and drawn into 8 mm long polymeric guidance channels at a density of 120×10^6 cells/ml. Xu et al. (1997). Each cut stump was inserted 1 mm into the channel. At the time of transection, a Schwann cell bridge was implanted at the injury site and rolipram was delivered subcutaneously via minipump at 0.07 umol/kg/hour for two weeks as described in Example 3B. As a negative control, animals were delivered saline only. As a positive control, 5 ul of 10 mM dbcAMP was infused in the proximal and distal stump of the lesion in animals. Animals were assessed on a weekly basis for hindlimb locomotion, which is a measure of their motor recovery, using the BBB test.

rats = details: cited from earlier work
[4] = system: rats with moderate spinal cord contusion; experiment: Moderate contusive injury to the spinal cord; BBB test of hindlimb locomotion; assay type: in vivo, rat
From the text: as §4
Adult rat spinal cord were exposed and injured with a weight drop device (NYU). See Beattie et al. (1997) and Basso et al. (1996). At the same time as the injury was inflicted, rolipram was delivered subcutaneously via minipumps at 0.07 nmol/kg/hour for 2 weeks. One week after injury, Schwann cells, which had been grown and purified in culture, were injected into the lesion site along with 4 injections, each of 0.2 ul, of 1 mM dbcAMP. As a negative control, animals were injected with Schwann cells alone. Other animals were administered dbcAMP and Schwann cells. One group of animals was administered four injections, each of 0.2 ul, of 1 mM dbcAMP one week after injury. Another group was administered four injections, each of 0.2 ul, of 50 mM dbcAMP one week after injury. Another group was administered four injections, each of 0.2 ul, of 50 mM dbcAMP one day after injury. Animals were assessed on a weekly basis for hindlimb locomotion using the BBB test.

rat model of arthritis = details: higher concentrations (5-10 and 20 umol/kg), rats; cited from earlier work
[5] = system: cerebellar neurons and DRG neurons on MAG-expressing CHO cells; experiment: Subcutaneous rolipram injections into P12 rats; neurite outgrowth of isolated neurons on MAG-expressing CHO cells; assay type: in vivo, rat
Procedure: as §1
Rolipram was injected subcutaneously into P12 rats at concentrations of 0, 7.5, 20, 25 or 40 nmol/kg every 3 hours for 24 hours before sacrificing. […] Cerebellar neurons were isolated as described in Example 1. Dorsal root ganglia (DRG) neurons were isolated as described previously (De Bellard et al., 1996). Briefly, ganglia were removed from the animals and incubated in 5 ml of SATO media containing 0.025% of trypsin and 0.15% of collagenase type I (Worthington) for 1 hour at 37° C. The ganglia were triturated and trypsinization was stopped by adding 5 ml of DMEM containing 10% FCS. Ganglia were centrifuged at 800 rpm for 6 min, and resuspended in SATO. Neurons were cultured overnight on CHO monolayers as described in Example 1 before being fixed and immunostained for GAP43 to visualize the neurites, as described in Example 1. As a positive control, some neurons from control animals were also cultured overnight in the presence of 1 mM dbcAMP. The length of the longest neurite per neuron, from 180-200 neurons, was measured and results are the average length+/−SEM. Results are expressed as a percentage of growth of the neurons isolated from control animals, treated with saline/DMSO injections and plated on control CHO cells, without dbcAMP or rolipram treatment.

[6] = system: cerebellar neurons on MAG-expressing Chinese hamster ovary (CHO) cells; experiment: Direct treatment of cerebellar neurons with rolipram; neurite outgrowth on MAG-expressing CHO cells; assay type: cell-based, rat
Procedure: Cerebellar neurons from P5 rats were isolated as described previously (Cai et al., 1999) Briefly, cerebellum was treated with 0.025% of trypsin, triturated and incubated for 10 min at 37° C. Trypsinization was stopped by adding an equal amount of DMEM containing 10% fetal calf serum (FCS). Cells were centrifuged at 800 rpm for 5 min. The cells were resuspended to a single-cell suspension in 2 ml of SATO (see Cai et al., 1999, herein incorporated by reference). The concentration of cells were adjusted to 6×10^4 cells/ml. […] Where indicated, dbcAMP (1 mM) or rolipram (0.1 uM, 0.25 uM, 0.5 uM or 1.0 uM) was added to the media. After 18 hours of culture, neurons were fixed and immunostained with a rabbit polyclonal antibody against […] (GAP43) to visualize the neurites. The length of the longest neurite of the first two hundred GAP43-positive neurons was determined using the Simple 32™ software (see Cai et al., 1999). The mean length of a neurite was determined and presented as the average length+/−SEM in micrometers (um). Results are expressed as a percentage of neurite length from neurons grown in the absence of dbcAMP or rolipram.

[7] = system: cerebellar neurons on MAG-expressing CHO cells; experiment: Priming of cerebellar neurons with rolipram; neurite outgrowth on MAG-expressing CHO cells; assay type: cell-based, rat; details: BDNF 200 ng/ml
Procedure: as §3

mice = details: cited from earlier work
[8] = system: DRG neurons on MAG-expressing CHO cells; experiment: Continuous subcutaneous rolipram delivery by minipumps to P30 rats; neurite outgrowth of isolated DRG neurons on MAG-expressing CHO cells; assay type: in vivo, rat; details: for axonal outgrowth in the presence of MAG and on control CHO cells: minipump 0.4 umol/kg/hour
Procedure: Rolipram was delivered subcutaneously with ALZET 2001 minipumps. Minipumps were inserted subcutaneously under the skin of the animals' backs. Two minipumps were used for each animal; the combined flow rate was 2 ul/hour. Rolipram was dissolved in DMSO and sterile saline was added to adjust the doses of rolipram that were released from minipumps every hour. After 24 hours of treatment, DRG neurons were isolated from control and treated animals and plated onto a monolayer of MAG-expressing CHO cells or a monolayer of control CHO cells. Neurons were cultured overnight before being fixed and immunostained for GAP43 to visualize the neurites. The length of the longest neurite per neuron from 180-200 neurons was measured. Results are expressed as a percentage of growth of the neurons isolated from control animals and are shown as the average length+/−SEM presented as percentage of growth on control cells.
as §2, with “In order to determine whether longer continuous treatment with a PDE4 inhibitor would increase the relief of inhibition of neurite outgrowth by myelin or MAG, rolipram was administered subcutaneously by minipump (0.4 umol/kg/hour). After 1, 2 or 3 days of continuous rolipram treatment, DRG” for “DRG”, “treated” for “treated P30”, “neurites.” for “neurites, as described in Example 1.”, “length+/−SEM,” for “length+/−SEM”

[9] = system: animal model for multiple sclerosis; details: cited from earlier work

crossing of the blood brain barrier ([5]; inferred from effect on cerebellar (CNS) and DRG neurons after s.c. administration): crossed the blood brain barrier
SMILES: COc1ccc(C2CNC(=O)C2)cc1OC1CCCC1 (stereo not shown) [rolipram]
length of the neurites, 1, 2 and 3 days of treatment compared ([1]; 0.5 umol/kg intermittent s.c. injections every three hours): no significant difference
length of the axons of DRG neurons, 24 hours treatment in comparison to 6 hours ([1]; 0.5 umol/kg repeated s.c. injections, FIG. 5): increased
inhibition of axonal outgrowth by MAG ([1]; 0.1-2.0 umol/kg s.c. every 3 hours for 24 hours, FIG. 4): blocked (i.e., relieved) by rolipram in a dose-dependent manner
most effective subcutaneous dose for relieving MAG inhibition ([1]; s.c. every 3 hours for 24 hours): 0.5 µmol/kg
inhibition of axonal growth by myelin after priming [2]: overcomes inhibition
basal cAMP levels (hippocampal slices; 1.0-3.0 umol/kg): Increased basal cAMP levels
basal cAMP levels in hippocampal slices (hippocampal slices; up to 0.3 umol/kg): did not raise basal cAMP levels
BBB score (motor recovery) ([3]; adult rats, complete transection at T8, Schwann cell bridge, minipump s.c. 0.07 umol/kg/hour for two weeks, vs saline): significantly increases
BBB score compared with administration of dbcAMP ([3]; rolipram 0.07 umol/kg/hour s.c., dbcAMP 5 ul of 10 mM infused in the stumps): essentially the same result
concentrations at which sedative effects were demonstrated (rats): 5 to 10 µmol/kg
motor skill recovery as measured by the BBB score ([4]; adult rats, minipump s.c. 0.07 nmol/kg/hour for 2 weeks plus Schwann cells and 4 injections of 1 mM dbcAMP one week after injury, from 2 up to 7 weeks after injury): significantly improved
BBB score achieved ([4]; continuous rolipram plus Schwann cells and dbcAMP, greater than 15 is scored as complete recovery): greater than 15
side effects (rat model of arthritis): No side effects
subsequent inhibition of neuronal growth by MAG ([5]; P12 rats, 7.5 nmol/kg s.c. every 3 hours for 24 hours): effectively blocks
inhibition of neuronal growth by MAG ([5]; P12 rats, 25 nmol/kg s.c. every 3 hours for 24 hours): essentially completely blocked
most effective subcutaneous dose for relieving MAG inhibition ([5]; P12 rats, s.c. every 3 hours for 24 hours): 20 nmol/kg
neurite length on control CHO cells ([5]; P12 rats, s.c. injections for 24 hours, control cells not expressing MAG): did not affect neurite length
inhibition of axonal outgrowth by MAG ([6]; rolipram 0.25 uM-1.0 uM in media, 18 hours culture, P5 rat cerebellar neurons, FIG. 1): partially blocks
efficiency of blocking the inhibition of axonal outgrowth by MAG compared to dibutyryl-cAMP ([6]; rolipram 0.5 uM, comparator dbcAMP 1 mM): 80%
dose dependence of the effect on MAG inhibition of axonal outgrowth ([6]; rolipram 0.1-1.0 uM): dose-dependent
blocking inhibition of axonal outgrowth by MAG after priming, compared with BDNF priming ([7]; priming 18 hours with rolipram 0.25 uM, FIG. 2): almost as effective as priming cerebellar neurons with BDNF
length of neurites on monolayer of CHO cells expressing MAG, as % of length of neurons treated with BDNF ([7]; priming with rolipram 0.25 uM): 95%
memory improving effects (mice; 3.0 umol/kg): did not have memory improving effects
side effects (mice; 0.1-3.0 umol/kg): No side effects
performance in a hippocampus-dependent memory task (mice; mice, 0.1 umol/kg s.c.): improved the performance
axonal outgrowth in the presence of MAG and on control CHO cells ([8]; 2 days): significantly promoted
axonal outgrowth in the presence of MAG and on control CHO cells ([8]; 3 days): even further promoted
optimal continuous dose for subsequent neuronal growth and regeneration ([8]; s.c. minipump, 0.4, 0.5, 0.7 umol/kg/hour tested): 0.4 µmol/kg/h
inhibition of DRG neurons by MAG after 24 hours of continuous treatment ([8]; s.c. minipump, 24 hours): no longer inhibited by MAG
anti-inflammatory effect [9]: demonstrated

Reference: patent US20030229134A1, “Methods for stimulating nervous system regeneration and repair by inhibiting phosphodiesterase type 4” (priority 2000, published 2003)
